Source: paper PMC7271948, “A baculoviral system for the production of human β-glucocerebrosidase enables atomic resolution analysis” (Acta Crystallographica. Section D, Structural Biology, 2020)

Tests used:
[1] = molecular target: T1, β-glucocerebrosidase (GBA) (Homo sapiens, UniProt P04062); experiment: X-ray crystal structure at […] Å; IC50 against 4-MU-Glc hydrolysis at pH […]; type: biochemical
T1 construct: gene GBA1
T1 sequence (P04062 40-536): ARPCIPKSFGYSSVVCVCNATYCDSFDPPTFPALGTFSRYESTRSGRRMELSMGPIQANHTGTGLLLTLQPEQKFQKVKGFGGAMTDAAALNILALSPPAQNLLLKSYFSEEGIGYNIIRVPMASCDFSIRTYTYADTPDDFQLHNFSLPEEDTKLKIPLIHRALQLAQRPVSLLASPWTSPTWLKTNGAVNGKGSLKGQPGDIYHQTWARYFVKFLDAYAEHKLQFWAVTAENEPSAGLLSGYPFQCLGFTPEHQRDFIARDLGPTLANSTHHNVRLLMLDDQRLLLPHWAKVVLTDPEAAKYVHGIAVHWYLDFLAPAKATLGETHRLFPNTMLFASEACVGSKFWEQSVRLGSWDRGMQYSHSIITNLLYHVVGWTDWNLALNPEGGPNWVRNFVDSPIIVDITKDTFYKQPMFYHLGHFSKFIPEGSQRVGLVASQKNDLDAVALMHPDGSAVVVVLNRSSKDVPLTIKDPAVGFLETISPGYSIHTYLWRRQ

[2] = molecular target: T1, β-glucocerebrosidase (GBA); experiment: X-ray crystal structure at […] Å, crystals soaked with 2F-DNPGlc; type: binding

Structure (SMILES)	IC50 [1] [mM]	X-ray crystal structure at 1.41 Å, crystals soaked with 2F-DNPGlc [2]
OCC(CO)(CO)NCCCNC(CO)(CO)CO [BTP, bis-Tris propane]	4.31 ± 0.42	
O=[N+]([O-])c1ccc(O[C@@H]2O[C@H](CO)[C@@H](O)[C@H](O)[C@H]2F)c([N+](=O)[O-])c1 [2F-DNPGlc, 2,4-dinitrophenyl-2-deoxy-2-fluoro-β-D-glucopyranoside]		showing unambiguous electron density for covalent binding of the 2-deoxy-2-fluoroglucose moiety to the catalytic nucleophile
